In ChEMBL document CHEMBL5442334, “ASAP - In vitro safety pharmacology profile” (2024) one finds inhibition and Inhibition data, which are given here for ten compounds.

The species named for one data set is Rattus norvegicus. Briefly: SafetyScreen: KV (Non-Selective) Rat Potassium Ion Channel [125I] alpha-Dendrotoxin Binding LeadHunter Assay, catalogue number: 166. Particulars: Test compound concentration 10.0 uM.
Data set [1] deals with Voltage-gated inwardly rectifying potassium channel KCNH2 (Homo sapiens, UniProt Q12809). The data set is described as follows: SafetyScreen: hERG Human Potassium Ion Channel [3H] Dofetilide Binding Antagonist Radioligand SafetyScreen, catalogue number: 4094. As to conditions: at 10 µM, test compound concentration 10 uM. (In general: hERG is a cardiac potassium channel; its block is linked to QT prolongation.)

For data set [2], the target named is Muscarinic acetylcholine receptor M3 (Homo sapiens) (UniProt P20309). Briefly: SafetyScreen: M3 Human Acetylcholine (Muscarinic) GPCR Binding Antagonist Radioligand LeadHunter Assay, catalogue number: 95. Particulars: Test compound concentration 10.0 uM.
Data set [3] has as its target T1, Glucocorticoid receptor (Homo sapiens) (UniProt P04150).
T1 sequence (whole entry): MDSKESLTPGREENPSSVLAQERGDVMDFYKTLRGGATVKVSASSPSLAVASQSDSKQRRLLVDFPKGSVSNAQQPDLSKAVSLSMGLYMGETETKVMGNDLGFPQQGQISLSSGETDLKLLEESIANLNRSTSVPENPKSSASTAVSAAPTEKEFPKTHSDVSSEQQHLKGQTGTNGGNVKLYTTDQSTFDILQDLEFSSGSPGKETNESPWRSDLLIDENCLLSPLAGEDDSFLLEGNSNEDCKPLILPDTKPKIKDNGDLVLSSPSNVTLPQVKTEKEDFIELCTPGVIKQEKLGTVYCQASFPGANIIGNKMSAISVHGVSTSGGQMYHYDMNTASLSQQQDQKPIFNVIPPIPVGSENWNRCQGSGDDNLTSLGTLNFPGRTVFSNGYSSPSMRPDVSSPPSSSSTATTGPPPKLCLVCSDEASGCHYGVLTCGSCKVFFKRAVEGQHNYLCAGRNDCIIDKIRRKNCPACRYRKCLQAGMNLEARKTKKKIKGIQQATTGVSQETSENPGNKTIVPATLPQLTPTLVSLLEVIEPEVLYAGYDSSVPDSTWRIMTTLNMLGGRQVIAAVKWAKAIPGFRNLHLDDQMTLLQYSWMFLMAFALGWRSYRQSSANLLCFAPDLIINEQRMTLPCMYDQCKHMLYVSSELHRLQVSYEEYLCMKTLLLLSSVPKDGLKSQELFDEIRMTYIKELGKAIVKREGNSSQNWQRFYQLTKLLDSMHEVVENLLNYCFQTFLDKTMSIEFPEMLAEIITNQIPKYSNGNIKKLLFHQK
The data set is described as follows: SafetyScreen: GR Human Glucocorticoid NHR Binding Agonist Radioligand LeadHunter Assay, catalogue number: 469. As to conditions: Test compound concentration 10.0 uM.

Data set [4] deals with Sodium-dependent dopamine transporter (Homo sapiens) (UniProt Q01959). Briefly: SafetyScreen: DAT Human Dopamine Transporter Binding Antagonist Radioligand LeadHunter Assay, catalogue number: 52. As to conditions: Test compound concentration 10.0 uM.
Data set [5] concerns the target Tyrosine-protein kinase Lck (Homo sapiens) (UniProt P06239). Briefly: SafetyScreen: Lck Human TK Kinase Enzymatic TR-FRET [Km ATP] LeadHunter Assay, catalogue number: 2906. In kind it is functional. Particulars: Test compound concentration 10.0 uM. On the technique in general: Time-resolved FRET reads energy transfer from a long-lived donor to a nearby acceptor.
The target in data set [6] is Sodium-dependent serotonin transporter (Homo sapiens) (UniProt P31645). The data set is described as follows: SafetyScreen: SERT Human Serotonin Transporter Binding Antagonist Radioligand LeadHunter Assay, catalogue number: 439. As to conditions: Test compound concentration 10.0 uM.
Data set [7] has as its target GABA-A receptor; anion channel (Rattus norvegicus) (UniProt O09028+P15431+P18506+P18508+P19969+P20236+P23574+P23576+P28471+P28473+P30191+P62813+P63079+P63138+Q91ZM7+Q9ES14). Briefly: SafetyScreen: GABAA (Non-Selective) Rat Ion Channel [3H] Flunitrazepam Binding Agonist Radioligand LeadHunter Assay, catalogue number: 28. In kind it is protein-complex assay. As to conditions: Test compound concentration 10.0 uM.

Data set [8] deals with Acetylcholinesterase (Homo sapiens) (UniProt P22303). Briefly: SafetyScreen: Acetylcholinesterase Human Enzymatic LeadHunter Assay, catalogue number: 363. In kind it is functional. As to conditions: Test compound concentration 10.0 uM.
Data set [9] has as its target T2, Muscarinic acetylcholine receptor M2 (Homo sapiens) (UniProt P08172).
T2 sequence (whole entry): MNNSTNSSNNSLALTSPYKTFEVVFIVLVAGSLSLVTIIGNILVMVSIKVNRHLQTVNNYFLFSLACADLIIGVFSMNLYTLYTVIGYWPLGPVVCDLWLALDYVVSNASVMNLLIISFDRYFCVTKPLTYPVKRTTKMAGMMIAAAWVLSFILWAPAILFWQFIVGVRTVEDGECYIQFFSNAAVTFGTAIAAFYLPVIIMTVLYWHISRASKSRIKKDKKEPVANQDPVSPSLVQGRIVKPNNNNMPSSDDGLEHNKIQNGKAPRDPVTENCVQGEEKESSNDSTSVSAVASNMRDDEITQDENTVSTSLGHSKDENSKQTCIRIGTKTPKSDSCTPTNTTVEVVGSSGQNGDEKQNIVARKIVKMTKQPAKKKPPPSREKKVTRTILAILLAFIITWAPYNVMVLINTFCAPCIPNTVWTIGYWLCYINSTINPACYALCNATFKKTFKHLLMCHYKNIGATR
The data set is described as follows: SafetyScreen: M2 Human Acetylcholine (Muscarinic) GPCR Binding Antagonist Radioligand LeadHunter Assay, catalogue number: 93. As to conditions: Test compound concentration 10.0 uM.

Data set [10] has as its target Beta-2 adrenergic receptor (Homo sapiens) (UniProt P07550). The data set is described as follows: SafetyScreen: beta2 Human Adrenoceptor GPCR Binding Antagonist Radioligand LeadHunter Assay, catalogue number: 20. As to conditions: Test compound concentration 10.0 uM.
In data set [11] the target is T3, 5-hydroxytryptamine receptor 3A (Homo sapiens) (UniProt P46098).
T3 sequence (whole entry): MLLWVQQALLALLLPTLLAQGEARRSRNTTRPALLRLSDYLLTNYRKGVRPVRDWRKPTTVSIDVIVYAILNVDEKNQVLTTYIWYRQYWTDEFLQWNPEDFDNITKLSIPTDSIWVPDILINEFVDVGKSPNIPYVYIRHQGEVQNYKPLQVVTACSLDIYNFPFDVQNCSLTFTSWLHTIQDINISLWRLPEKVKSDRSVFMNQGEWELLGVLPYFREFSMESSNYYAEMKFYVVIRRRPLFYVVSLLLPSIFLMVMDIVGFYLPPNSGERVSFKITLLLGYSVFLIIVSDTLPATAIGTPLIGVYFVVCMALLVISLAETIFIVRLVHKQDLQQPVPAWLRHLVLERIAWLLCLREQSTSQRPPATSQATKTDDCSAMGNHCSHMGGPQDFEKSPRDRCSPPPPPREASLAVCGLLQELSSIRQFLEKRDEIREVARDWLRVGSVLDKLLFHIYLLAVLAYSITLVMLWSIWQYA
The data set is described as follows: SafetyScreen: 5-HT3 Human Serotonin Ion Channel Binding Antagonist Radioligand LeadHunter Assay, catalogue number: 411. As to conditions: Test compound concentration 10.0 uM.

What is called inhibition is the drop in the measured response relative to a control, in per cent. As usually defined, the Inhibition is the change of the read-out against control, counted positive when it falls. High values mean strong suppression, low ones little suppression.

Molecules are shown by their SMILES.

Sequence of Sodium-dependent dopamine transporter (Homo sapiens) (Q01959 whole entry): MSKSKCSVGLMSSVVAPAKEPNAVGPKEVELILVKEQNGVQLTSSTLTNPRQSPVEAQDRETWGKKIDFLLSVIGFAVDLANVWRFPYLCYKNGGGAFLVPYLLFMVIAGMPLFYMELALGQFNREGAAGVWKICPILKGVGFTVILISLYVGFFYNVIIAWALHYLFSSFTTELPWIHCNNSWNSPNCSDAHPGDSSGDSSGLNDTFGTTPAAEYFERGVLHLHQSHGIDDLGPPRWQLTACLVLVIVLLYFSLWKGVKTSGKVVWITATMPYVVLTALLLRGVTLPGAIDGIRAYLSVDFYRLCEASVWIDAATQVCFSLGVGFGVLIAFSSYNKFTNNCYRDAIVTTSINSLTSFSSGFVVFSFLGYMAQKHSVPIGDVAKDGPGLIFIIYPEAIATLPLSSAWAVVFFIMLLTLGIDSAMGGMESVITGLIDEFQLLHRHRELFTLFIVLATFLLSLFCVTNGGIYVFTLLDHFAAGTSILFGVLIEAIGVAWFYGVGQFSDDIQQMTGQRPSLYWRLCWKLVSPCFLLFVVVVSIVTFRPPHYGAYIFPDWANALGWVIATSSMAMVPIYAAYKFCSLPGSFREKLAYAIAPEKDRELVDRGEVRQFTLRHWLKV
Sequence of Muscarinic acetylcholine receptor M3 (Homo sapiens) (P20309 whole entry, looked up): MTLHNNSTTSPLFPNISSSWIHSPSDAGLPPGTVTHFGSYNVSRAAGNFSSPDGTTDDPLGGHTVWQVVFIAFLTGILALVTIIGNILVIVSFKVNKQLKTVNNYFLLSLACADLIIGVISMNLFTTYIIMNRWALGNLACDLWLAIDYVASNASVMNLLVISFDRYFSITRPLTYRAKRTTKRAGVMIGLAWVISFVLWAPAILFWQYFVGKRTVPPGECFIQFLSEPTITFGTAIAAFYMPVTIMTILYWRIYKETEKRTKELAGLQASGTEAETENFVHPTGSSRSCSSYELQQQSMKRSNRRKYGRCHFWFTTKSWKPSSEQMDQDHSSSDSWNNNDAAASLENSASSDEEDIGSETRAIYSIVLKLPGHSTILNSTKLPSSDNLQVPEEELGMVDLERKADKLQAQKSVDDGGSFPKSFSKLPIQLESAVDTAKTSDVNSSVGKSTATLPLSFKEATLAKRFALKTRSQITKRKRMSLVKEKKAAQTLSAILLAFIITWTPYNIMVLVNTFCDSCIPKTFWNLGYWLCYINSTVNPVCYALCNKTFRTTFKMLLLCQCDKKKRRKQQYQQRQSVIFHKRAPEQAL
Sequence of Tyrosine-protein kinase Lck (Homo sapiens) (P06239 2-509 limits assumed): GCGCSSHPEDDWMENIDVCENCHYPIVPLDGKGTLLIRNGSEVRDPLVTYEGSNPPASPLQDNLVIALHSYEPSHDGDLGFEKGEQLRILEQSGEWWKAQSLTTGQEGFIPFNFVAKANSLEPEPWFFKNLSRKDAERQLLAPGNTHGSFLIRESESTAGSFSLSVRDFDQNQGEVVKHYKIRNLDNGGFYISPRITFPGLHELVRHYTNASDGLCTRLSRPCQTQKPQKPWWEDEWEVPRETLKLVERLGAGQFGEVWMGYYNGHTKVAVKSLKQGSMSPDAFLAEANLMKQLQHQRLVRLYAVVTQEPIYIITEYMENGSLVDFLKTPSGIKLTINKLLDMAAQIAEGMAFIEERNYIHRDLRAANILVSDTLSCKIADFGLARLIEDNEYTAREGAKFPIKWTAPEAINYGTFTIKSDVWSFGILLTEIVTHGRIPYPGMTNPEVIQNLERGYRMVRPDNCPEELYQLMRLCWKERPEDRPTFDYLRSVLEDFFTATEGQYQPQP
Sequence of Beta-2 adrenergic receptor (Homo sapiens) (P07550 whole entry, looked up): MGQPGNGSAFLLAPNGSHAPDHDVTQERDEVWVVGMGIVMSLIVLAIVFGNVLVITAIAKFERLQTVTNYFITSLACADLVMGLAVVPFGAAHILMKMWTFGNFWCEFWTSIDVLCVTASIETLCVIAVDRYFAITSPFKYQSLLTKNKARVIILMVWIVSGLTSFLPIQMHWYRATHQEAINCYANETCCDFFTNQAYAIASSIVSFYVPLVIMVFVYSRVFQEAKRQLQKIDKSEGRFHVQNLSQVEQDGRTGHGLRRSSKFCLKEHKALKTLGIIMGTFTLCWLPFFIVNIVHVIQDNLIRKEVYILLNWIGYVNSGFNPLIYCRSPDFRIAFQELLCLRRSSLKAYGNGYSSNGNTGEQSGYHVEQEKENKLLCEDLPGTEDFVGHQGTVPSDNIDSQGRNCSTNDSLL
Sequence of Acetylcholinesterase (Homo sapiens) (P22303 whole entry): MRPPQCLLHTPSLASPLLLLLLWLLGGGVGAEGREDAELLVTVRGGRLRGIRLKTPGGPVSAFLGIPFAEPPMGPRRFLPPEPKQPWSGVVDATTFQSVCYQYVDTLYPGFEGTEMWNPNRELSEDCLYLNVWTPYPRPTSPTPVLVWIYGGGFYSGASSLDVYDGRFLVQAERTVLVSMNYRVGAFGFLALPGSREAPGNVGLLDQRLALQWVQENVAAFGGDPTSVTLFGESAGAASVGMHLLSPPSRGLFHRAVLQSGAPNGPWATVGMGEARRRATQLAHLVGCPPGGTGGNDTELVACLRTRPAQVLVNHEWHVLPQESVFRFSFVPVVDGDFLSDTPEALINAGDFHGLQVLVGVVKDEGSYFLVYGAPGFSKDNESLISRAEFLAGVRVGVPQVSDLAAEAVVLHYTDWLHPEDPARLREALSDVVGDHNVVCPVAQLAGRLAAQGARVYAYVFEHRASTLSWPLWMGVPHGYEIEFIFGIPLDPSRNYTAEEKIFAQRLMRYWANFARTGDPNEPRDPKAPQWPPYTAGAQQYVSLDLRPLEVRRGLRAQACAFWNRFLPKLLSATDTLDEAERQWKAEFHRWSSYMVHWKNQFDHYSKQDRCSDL
Sequence of Sodium-dependent serotonin transporter (Homo sapiens) (P31645 whole entry, looked up): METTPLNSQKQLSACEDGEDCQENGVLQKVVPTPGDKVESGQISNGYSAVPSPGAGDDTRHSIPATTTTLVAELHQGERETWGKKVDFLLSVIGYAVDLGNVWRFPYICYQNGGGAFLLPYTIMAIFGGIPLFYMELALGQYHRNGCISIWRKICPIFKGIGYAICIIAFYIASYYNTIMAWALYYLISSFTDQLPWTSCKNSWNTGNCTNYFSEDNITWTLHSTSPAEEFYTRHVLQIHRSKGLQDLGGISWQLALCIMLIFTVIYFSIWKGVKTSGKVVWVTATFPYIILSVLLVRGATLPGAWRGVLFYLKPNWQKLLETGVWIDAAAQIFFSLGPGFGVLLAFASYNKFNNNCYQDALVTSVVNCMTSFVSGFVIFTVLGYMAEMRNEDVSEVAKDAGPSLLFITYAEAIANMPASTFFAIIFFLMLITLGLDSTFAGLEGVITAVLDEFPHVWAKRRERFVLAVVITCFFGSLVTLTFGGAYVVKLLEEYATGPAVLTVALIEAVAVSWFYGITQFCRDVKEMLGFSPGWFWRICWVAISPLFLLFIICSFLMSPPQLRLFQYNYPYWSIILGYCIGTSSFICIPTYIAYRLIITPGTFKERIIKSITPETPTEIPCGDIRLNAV
Sequence of Voltage-gated inwardly rectifying potassium channel KCNH2 (Q12809 whole entry): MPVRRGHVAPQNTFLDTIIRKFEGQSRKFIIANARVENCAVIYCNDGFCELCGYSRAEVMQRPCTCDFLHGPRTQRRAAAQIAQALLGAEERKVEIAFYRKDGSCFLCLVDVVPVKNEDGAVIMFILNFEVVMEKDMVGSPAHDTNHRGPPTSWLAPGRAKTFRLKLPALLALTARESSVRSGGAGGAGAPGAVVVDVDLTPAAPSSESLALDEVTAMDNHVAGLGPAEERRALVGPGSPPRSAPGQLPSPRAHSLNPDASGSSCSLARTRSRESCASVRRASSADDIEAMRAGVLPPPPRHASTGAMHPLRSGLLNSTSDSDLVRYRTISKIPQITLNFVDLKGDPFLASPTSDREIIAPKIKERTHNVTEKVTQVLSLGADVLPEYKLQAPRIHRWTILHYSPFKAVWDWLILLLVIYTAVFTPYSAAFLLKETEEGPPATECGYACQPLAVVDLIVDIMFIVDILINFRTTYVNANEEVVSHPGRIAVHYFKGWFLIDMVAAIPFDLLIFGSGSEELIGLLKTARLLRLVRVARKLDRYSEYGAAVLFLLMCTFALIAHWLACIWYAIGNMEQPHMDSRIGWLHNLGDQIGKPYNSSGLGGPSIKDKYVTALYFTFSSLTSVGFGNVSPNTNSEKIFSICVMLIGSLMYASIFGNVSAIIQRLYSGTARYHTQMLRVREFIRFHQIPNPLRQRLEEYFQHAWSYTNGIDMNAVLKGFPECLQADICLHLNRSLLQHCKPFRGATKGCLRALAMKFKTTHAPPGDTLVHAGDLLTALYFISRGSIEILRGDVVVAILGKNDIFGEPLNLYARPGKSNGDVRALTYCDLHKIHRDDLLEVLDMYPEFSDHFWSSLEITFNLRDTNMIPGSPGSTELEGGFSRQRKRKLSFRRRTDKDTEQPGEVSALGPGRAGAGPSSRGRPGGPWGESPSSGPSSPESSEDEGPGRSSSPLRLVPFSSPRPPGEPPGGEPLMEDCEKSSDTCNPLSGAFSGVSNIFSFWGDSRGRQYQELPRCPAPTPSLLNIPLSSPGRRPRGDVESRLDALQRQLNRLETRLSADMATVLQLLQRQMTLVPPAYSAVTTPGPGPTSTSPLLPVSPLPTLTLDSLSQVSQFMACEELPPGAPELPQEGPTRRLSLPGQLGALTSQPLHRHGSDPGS

Regarding `CC(C)[C@@H](Nc1ncnc2[nH]c(C(=O)N[C@@H]3CCN(C)C3)cc12)c1ccc2c(c1)S(=O)(=O)CCC2`, the inhibition in the data set filed under Rattus norvegicus was 2%; in data set [2] it was -9%; in data set [3] it was 11%; in [4] it was 22%; in [5], 15%; in [6], 1%. Besides, the inhibition is 38% in [7]; 28% in data set [8]; 52% in [9]; -3% in data set [10]; 2% in [11]. The Inhibition in data set [1] was 7%.

On to `CNCc1cc(-c2cc3c(N[C@@H](c4ccc5c(c4)S(=O)(=O)CCC5)C(C)C)ncnc3[nH]2)co1`, for which the inhibition in the data set listed under Rattus norvegicus turned out to be 1%; in [2], 5%; in data set [3], 21%; in [4], 50%; in data set [5] it was 68%; in [6], 24%. Besides, the inhibition was determined as 28% in data set [7]; 10% in [8]; 52% in data set [9]; 6% in [10]; 0% in [11].

As for `COc1ccc([C@H](Cc2nnn[nH]2)NC(=O)c2ncnc3[nH]ccc23)cc1`, the inhibition was -1% in the data set listed under Rattus norvegicus; 1% in data set [3]; 7% in data set [4]; 4% in data set [5]; -1% in data set [6]; 0% in data set [7]. The inhibition in [8] was 11%; in [10], -6%; in [11] it was 6%. In addition, the Inhibition in [1] is on record as 5%.

`CC(C)[C@@H](Nc1ncnc2[nH]c(-c3cnn(C)c3C#N)cc12)c1ccc2c(n1)OCCO2`: the inhibition in the data set listed under Rattus norvegicus stood at 2%; in [2] it was 1%; in data set [3], 22%; in [4], 30%; in data set [5], 34%; in [6] it was 9%. Further, the inhibition in data set [7] worked out at 8%; in [8], 22%; in data set [9], 15%; in data set [10], 3%; in data set [11], 4%. The Inhibition in [1] is listed as 32%.

As to `CC(C)[C@H](Nc1ncnc2[nH]ccc12)c1ccc2c(c1)S(=O)(=O)CCC2`, the inhibition in the data set listed under Rattus norvegicus is -10%; in data set [2], 5%; in data set [3] it was 10%; in data set [4], 27%; in [5], 10%; in [6], 0%. In addition, the inhibition in [7] was 4%; in [8], 12%; in data set [9], 34%; in data set [10] it was -1%; in data set [11] it was 8%. Besides, in data set [1], the Inhibition is 20%.

For the compound `CC(C)[C@H](Nc1ncnc2[nH]c(-c3cnn(C)c3C#N)cc12)c1ccc2c(n1)OCCO2`, the inhibition was 0% in the data set filed under Rattus norvegicus; 11% in [3]; 29% in data set [4]; 20% in data set [5]; 4% in data set [6]; -2% in data set [7]. Besides, the inhibition in [8] came out at 15%; in [9], 18%; in data set [10] it was 3%; in data set [11], 6%. In addition, in [1], the Inhibition came to 29%.

In the case of `CNC(=O)Cn1cc(-c2cc3c(N[C@@H](c4ccc5c(c4)S(=O)(=O)CCC5)C(C)C)ncnc3[nH]2)cn1`, the inhibition is -2% in the data set filed under Rattus norvegicus; -9% in data set [2]; 5% in data set [3]; 1% in [4]; 30% in data set [5]; -3% in data set [6]. Moreover, the inhibition amounted to 35% in data set [7]; 13% in data set [8]; 7% in [9]; 0% in data set [10]; 5% in [11]. The compound also displayed an Inhibition in data set [1] of 4%.

Regarding `Cn1ncc(-c2cc3c(N[C@@H](c4ccc5c(n4)OCCO5)C(C)(C)C)ncnc3[nH]2)c1C#N`, the inhibition in the data set filed under Rattus norvegicus is 5%; in data set [2], -8%; in [3], 28%; in data set [4] it was 50%; in data set [5] it was 47%; in data set [6], 2%. For the same compound, the inhibition is -5% in data set [7]; 14% in [8]; 25% in data set [9]; 4% in data set [10]; 3% in data set [11]. Also, the Inhibition in [1] worked out at 36%.

As to `Cc1nn(C)cc1-c1cc2c(N[C@H](c3ccc4c(c3)S(=O)(=O)CCC4)C(C)C)ncnc2[nH]1`, the inhibition is 1% in the data set listed under Rattus norvegicus; -9% in data set [2]; 7% in data set [3]; 13% in data set [4]; 33% in data set [5]; -4% in [6]. The inhibition is 29% in data set [7]; 13% in data set [8]; 5% in data set [9]; -7% in data set [10]; 6% in data set [11]. The same compound returned an Inhibition in [1] of 3%.

On to `C[C@H](C(=O)O)[C@@H](NC(=O)c1ncnc2[nH]ccc12)c1ccc(Br)cc1`, for which the inhibition in the data set listed under Rattus norvegicus was 0%; in data set [2], -9%; in data set [3] it was 3%; in data set [4], 4%; in data set [5] it was 4%; in data set [6], 0%. In addition, the inhibition in data set [7] was -4%; in data set [8] it was 12%; in data set [9], -4%; in data set [10], -8%; in data set [11] it was 2%. Moreover, the Inhibition in data set [1] was found to be 14%.
